# Experimental data from patent publication US20200079906A1, “PHOTODYNAMIC THERAPY COMPLEX” (University College Cardiff Consultants Limited, priority 2015, published 2020).
# “Also recorded” adds a separate entry of the source.
# What was measured:
# Experiment in all cases: Antimicrobial photodynamic protocol, viable cell count after laser exposure
# Assay type in all cases: cell-based
# [1] = tested on: Escherichia coli (NCTC10418); conditions: E. coli; for Antimicrobial activity (Log10 reduction of viable cells): green laser, 3 min laser exposure
# Description: (§1) The organisms used in this study were Escherichia coli (NCTC10418) and Staphylococcus epidermidis (ATCC12228), Pseudomonas aeruginosa (NCIMB10548), Methicillin Resistant Staphylococcus aureus (NCTC12493), Streptococcus pyogenes (ATCC19615) and Acinetobacter baumannii (NCIMB9214); they were stored at −80° C. These organisms were subcultured, when needed, on Brain Heart Infusion (BHI) Agar overnight aerobically at 37° C. The plates were then stored at 4° C. for no more than two weeks. Bacterial suspensions used for the experiments were grown in Brain Heart Infusion (BHI) broth after inoculation with a loopful of cells from a single colony on a BHI plate and incubated aerobically for 24 h at 37° C. statically. These overnight cultures were then diluted 1 in 100 in PBS. The resulting bacterial suspension contained approximately 10^6 CFU/mL. Each cell suspension was used to disperse pure PS, e.g. PBAE-TBO, to concentrations of 0.2 mg/mL or PBAEs-PS derivatives to an equivalent PS concentration.
# (§2) 200 μL aliquots of the resulting suspension were immediately poured in a GREINER 96 U-BOTTOM well plate. The well plate was then irradiated with a laser light (633 nm) using a 500 mW red laser (RRL-635 nm-500 mW-1080060, Changchun New Industries Optoelectronics, China) or a 500 mW green laser (MGL-FN-532 nm-500 mW-15097031, Changchun New Industries Optoelectronics, China) for different time periods (between 5 sec to 3 min). The red laser was employed for TBO while the green laser was used for RB and ERY.
# (§3) After exposure the bacterial cells (L+S+) were counted through serial dilutions and then plating on BHI Agar. Along this test, different experiments were performed including the testing of dark toxicity (labelled with L−S+), samples exposed uniquely to laser light (L+S−) or samples not expose to either laser light and PBAE (L−S−).
# (§4) Through the experiment prepared samples, well plates and inoculated plates were immediately covered with aluminium foil to reduce biased measuring results due to exposure of any light besides the laser. All plates were incubated after the experiment for 24 hours at 37° C. All experiments were performed on three independent cultures.
# [2] = tested on: Methicillin Resistant Staphylococcus aureus (NCTC12493); conditions: for Antimicrobial activity (Log10 reduction of viable cells): green laser, 5 sec, MRSA NCTC12493
# Description: as §1, §2, §3, §4
# [3] = tested on: Acinetobacter baumannii (NCIMB9214); conditions: TBO series, A. baumannii
# Description: as §1, §2, §3, §4
# [4] = tested on: Pseudomonas aeruginosa (NCIMB10548); conditions: TBO series, P. aeruginosa
# Description: as §1, §2, §3, §4
# [5] = tested on: Staphylococcus epidermidis (ATCC12228); conditions: TBO series
# Description: as §1, §2, §3, §4
# [6] = tested on: Streptococcus pyogenes (ATCC19615); conditions: TBO series
# Description: as §1, §2, §3, §4
# [7] = L+S+, red laser, 0.2 mg/mL TBO equivalent
compound,measurement,setting,value
"O=C1OC2(c3ccccc31)c1cc(I)c(O)c(I)c1Oc1c2cc(I)c(O)c1I [ERY, Erythrosin B]",Antimicrobial activity (Log10 reduction of viable cells),[1]; ERY series,exhibit antimicrobial activity; also recorded: not as effective as RB
same,Antimicrobial activity (Log10 reduction of viable cells),[2]; ERY series,exhibit antimicrobial activity; also recorded: not as effective as RB
"O=C([O-])c1c(Cl)c(Cl)c(Cl)c(Cl)c1-c1c2cc(I)c(=O)c(I)c-2oc2c(I)c([O-])c(I)cc12.[Na+].[Na+] [RB, Rose Bengal]",Antimicrobial activity (Log10 reduction of viable cells),[1]; RB series,exhibit antimicrobial activity
same,Antimicrobial activity (Log10 reduction of viable cells),[2]; RB series,exhibit antimicrobial activity
"Cc1cc2nc3ccc(=[N+](C)C)cc-3sc2cc1N.[Cl-] [TBO, Toluidine Blue O]",Antimicrobial effect of laser exposure (reduction of viable cells),[3]; [7],tendencies of progressive reduction
same,Cell reduction without irradiation (dark toxicity),[3]; L-S+,did not return any cell reduction
same,Antimicrobial effect of laser exposure (reduction of viable cells),"[1]; TBO series, L+S+, red laser, 0.2 mg/mL TBO equivalent",tendencies of progressive reduction
same,Cell reduction without irradiation (dark toxicity),"[1]; TBO series, L-S+",did not return any cell reduction
same,Antimicrobial effect of laser exposure (reduction of viable cells),"[2]; TBO series, L+S+, red laser, 0.2 mg/mL TBO equivalent, MRSA",tendencies of progressive reduction
same,Cell reduction without irradiation (dark toxicity),"[2]; TBO series, L-S+, MRSA",did not return any cell reduction
same,Antimicrobial effect of laser exposure (reduction of viable cells),[4]; [7],tendencies of progressive reduction
same,Cell reduction without irradiation (dark toxicity),[4]; L-S+,did not return any cell reduction
same,Antimicrobial effect of laser exposure (reduction of viable cells),[5]; [7],tendencies of progressive reduction
same,Cell reduction without irradiation (dark toxicity),[5]; L-S+,did not return any cell reduction
same,Antimicrobial effect of laser exposure (reduction of viable cells),[6]; [7],tendencies of progressive reduction
same,Cell reduction without irradiation (dark toxicity),[6]; L-S+,did not return any cell reduction
